pIC50: −log10 of the molar value.
Tests used:
HeLa [1] = assay: Antiproliferative activity against human HeLa cells assessed as reduction in cell viability incubated for 72 hrs by MTT assay; type: functional, cell-based
HepG2 = assay: cells; conditions: Homo sapiens, HepG2, 72 h
[2] = Toxicity in BALB/c mouse xenografted with human HeLa cells assessed as reduction in body weight at 20 mg/kg, ig administered for 30 days; type: organism-based; conditions: in vivo, po, 720 h
HeLa [3] = assay: Antitumor activity against human HeLa cells xenografted in BALB/c nude mouse assessed as tumor growth inhibition at 20 mg/kg, ig administered for 30 days measured every 3 days during compound dosing relative to control; type: functional; conditions: po, read-out: TGI
HCT-116 = assay: Antiproliferative activity against human HCT116 cells assessed as reduction in cell viability incubated for 72 hrs by MTT assay; type: functional, cell-based; conditions: HCT-116, 72 h
A549 [4] = assay: Antitumor activity against human A549 cells xenografted in BALB/c nude mouse assessed as tumor growth inhibition at 20 mg/kg, ig administered for 30 days measured every 3 days during compound dosing relative to control; type: functional; conditions: A549, po, read-out: TGI
[5] = Toxicity in BALB/c mouse xenografted with human A549 cells assessed as reduction in body weight at 20 mg/kg, ig administered for 30 days; type: organism-based; conditions: in vivo, po, 720 h
A-375 = assay: Antiproliferative activity against human A375 cells assessed as reduction in cell viability incubated for 72 hrs by MTT assay; type: functional, cell-based; conditions: A-375, 72 h
A549 [6] = assay: cells; conditions: Homo sapiens, A549, 72 h
MCF7 = assay: cells; conditions: Homo sapiens, MCF7, 72 h
[7] = biological target: PI3-kinase p110-delta/p85-alpha (Homo sapiens, UniProt O00329); assay: Inhibition of recombinant human full length N-terminal GST-tagged PI3Kdelta (1 to 1044 residues)/PIK3R1 (1 to 724 residues) expressed in baculovirus expression system using PIP2 as substrate incubated for 2 hrs by ADP-Glo assay
PI3-kinase p110-delta/p85-alpha, sequence (P27986 whole entry, the tested form may be a part): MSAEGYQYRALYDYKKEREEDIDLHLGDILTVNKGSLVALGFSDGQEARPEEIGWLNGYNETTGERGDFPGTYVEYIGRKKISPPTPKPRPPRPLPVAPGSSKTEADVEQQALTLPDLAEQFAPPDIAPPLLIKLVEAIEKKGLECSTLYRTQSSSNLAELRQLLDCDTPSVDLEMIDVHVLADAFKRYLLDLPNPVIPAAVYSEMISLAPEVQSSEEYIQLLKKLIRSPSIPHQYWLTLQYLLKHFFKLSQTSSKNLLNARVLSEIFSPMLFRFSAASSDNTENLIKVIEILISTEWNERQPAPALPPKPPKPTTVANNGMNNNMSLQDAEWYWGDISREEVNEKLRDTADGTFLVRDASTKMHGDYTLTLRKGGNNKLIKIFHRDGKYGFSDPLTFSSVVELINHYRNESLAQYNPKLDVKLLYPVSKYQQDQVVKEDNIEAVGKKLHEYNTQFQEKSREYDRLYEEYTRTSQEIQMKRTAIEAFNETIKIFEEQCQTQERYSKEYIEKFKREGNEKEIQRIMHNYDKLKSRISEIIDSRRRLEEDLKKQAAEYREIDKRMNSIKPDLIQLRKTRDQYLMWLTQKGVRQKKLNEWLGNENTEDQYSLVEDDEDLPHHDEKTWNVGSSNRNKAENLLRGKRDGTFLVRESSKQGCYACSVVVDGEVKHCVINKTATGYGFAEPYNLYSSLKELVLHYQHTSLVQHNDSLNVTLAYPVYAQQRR
PI3-kinase p110-delta/p85-alpha, sequence (O00329 whole entry, the tested form may be a part): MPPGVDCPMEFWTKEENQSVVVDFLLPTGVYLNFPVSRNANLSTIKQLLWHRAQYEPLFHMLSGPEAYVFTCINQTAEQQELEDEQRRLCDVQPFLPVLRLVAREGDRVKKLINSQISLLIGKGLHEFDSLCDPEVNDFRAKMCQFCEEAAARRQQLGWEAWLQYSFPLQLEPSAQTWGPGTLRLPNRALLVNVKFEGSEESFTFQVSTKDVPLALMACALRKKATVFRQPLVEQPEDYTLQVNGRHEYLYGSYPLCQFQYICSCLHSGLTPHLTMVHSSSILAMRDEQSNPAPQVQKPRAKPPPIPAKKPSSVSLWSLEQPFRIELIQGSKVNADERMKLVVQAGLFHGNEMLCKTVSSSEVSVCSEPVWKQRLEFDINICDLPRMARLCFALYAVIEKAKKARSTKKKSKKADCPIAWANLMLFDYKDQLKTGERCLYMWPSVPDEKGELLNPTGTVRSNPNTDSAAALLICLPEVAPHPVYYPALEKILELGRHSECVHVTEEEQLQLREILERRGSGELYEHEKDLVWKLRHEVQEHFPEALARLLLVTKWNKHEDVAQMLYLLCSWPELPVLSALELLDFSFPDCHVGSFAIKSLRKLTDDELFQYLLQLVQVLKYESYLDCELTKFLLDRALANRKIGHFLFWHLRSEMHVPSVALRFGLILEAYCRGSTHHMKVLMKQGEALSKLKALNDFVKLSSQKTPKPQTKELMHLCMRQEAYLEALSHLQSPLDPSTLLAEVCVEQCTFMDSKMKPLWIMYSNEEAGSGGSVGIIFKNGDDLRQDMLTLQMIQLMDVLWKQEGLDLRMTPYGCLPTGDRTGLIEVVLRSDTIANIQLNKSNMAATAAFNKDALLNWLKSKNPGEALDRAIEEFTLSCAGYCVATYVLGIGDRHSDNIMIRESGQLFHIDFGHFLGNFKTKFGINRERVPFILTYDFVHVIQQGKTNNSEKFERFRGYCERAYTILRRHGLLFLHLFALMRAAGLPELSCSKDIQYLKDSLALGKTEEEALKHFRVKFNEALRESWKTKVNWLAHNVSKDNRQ

[8] = biological target: Serine/threonine-protein kinase mTOR (Homo sapiens, UniProt P42345); assay: Inhibition of recombinant human N-terminal FLAG-tagged mTOR (1362 to end residues) using Ulight-4E-BP1 as substrate incubated for 30 mins by fluorescence assay
[9] = biological target: Phosphatidylinositol 4,5-bisphosphate 3-kinase catalytic subunit alpha isoform (Homo sapiens, UniProt P42336); assay: Inhibition of recombinant human full length N-terminal GST-tagged PI3Kalpha (1 to 1068 residues)/PIK3R1 (1 to 724 residues) expressed in baculovirus expression system using PIP2 as substrate incubated for 1 hr by ADP-Glo assay
Phosphatidylinositol 4,5-bisphosphate 3-kinase catalytic subunit alpha isoform, sequence (P42336 whole entry, looked up, the tested form may be a part, canonical isoform): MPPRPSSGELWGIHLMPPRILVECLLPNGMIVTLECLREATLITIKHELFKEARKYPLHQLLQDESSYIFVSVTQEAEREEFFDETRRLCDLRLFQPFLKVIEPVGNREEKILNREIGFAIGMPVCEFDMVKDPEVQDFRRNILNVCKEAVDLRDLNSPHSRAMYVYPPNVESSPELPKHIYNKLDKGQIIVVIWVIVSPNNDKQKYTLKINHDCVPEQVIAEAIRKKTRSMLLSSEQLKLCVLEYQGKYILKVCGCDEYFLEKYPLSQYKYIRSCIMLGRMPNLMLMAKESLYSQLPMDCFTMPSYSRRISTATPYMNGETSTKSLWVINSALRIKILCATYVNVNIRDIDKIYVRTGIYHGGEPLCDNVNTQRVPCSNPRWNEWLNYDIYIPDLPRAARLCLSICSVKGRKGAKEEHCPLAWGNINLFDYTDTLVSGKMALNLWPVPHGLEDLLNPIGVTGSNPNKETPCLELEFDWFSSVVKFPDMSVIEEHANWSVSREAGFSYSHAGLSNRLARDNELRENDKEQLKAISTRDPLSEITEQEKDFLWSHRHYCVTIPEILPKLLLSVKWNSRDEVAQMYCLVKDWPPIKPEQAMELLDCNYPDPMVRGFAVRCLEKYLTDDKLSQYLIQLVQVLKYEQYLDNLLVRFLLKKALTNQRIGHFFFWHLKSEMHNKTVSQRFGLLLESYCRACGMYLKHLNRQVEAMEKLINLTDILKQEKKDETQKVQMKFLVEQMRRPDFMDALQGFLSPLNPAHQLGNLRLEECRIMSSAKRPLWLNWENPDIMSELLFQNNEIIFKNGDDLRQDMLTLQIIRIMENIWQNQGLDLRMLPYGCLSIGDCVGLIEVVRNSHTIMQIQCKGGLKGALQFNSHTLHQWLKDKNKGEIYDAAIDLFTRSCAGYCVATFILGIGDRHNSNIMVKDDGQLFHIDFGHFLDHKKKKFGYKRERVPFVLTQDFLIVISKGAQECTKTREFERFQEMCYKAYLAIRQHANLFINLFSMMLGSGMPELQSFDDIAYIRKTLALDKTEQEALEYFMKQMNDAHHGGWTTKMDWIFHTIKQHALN

SMILES | pIC50 (HeLa [1]) | pIC50 (HepG2) | Activity [2] | inhibition in vivo at 20 mg/kg (HeLa [3]) [%] | pIC50 (HCT-116) | inhibition in vivo at 20 mg/kg (A549 [4]) [%] | Activity [5] | pIC50 (A-375) | pIC50 (A549 [6]) | pIC50 (MCF7) | pIC50 [7] | pIC50 [8] | pIC50 [9]
Cn1c(=O)n(-c2ccc(C(C)(C)C#N)cc2)c2c3cc(-c4cnc5ccccc5c4)ccc3ncc21 [DACTOLISIB] | 5.93 | 5.39 | Toxic | 66.5 | 5.77 | 56.1 | Toxic | 6.24 | 5.97 | 6.35 |  |  | 
COc1ncc(-c2ccc3c(c2)N(C(C)C)C(=O)CO3)cc1NS(=O)(=O)c1ccc(F)cc1 | 5.55 | 4.43 |  |  | 4.72 |  |  | 5.00 | 5.31 | 4.77 | 7.74 | 8.44 | 7.34
COc1cccc(N2C(=O)COc3ccc(-c4cccc(NS(=O)(=O)c5ccc(F)cc5)c4)cc32)c1 | < 4.40 | < 4.40 |  |  | < 4.40 |  |  | < 4.40 | < 4.40 | < 4.40 | < 6.00 | < 6.00 | < 6.00
COc1ncc(-c2ccc3c(c2)N(C2CCCCC2)C(=O)CO3)cc1NS(=O)(=O)c1ccc(F)cc1 | 5.21 | < 4.40 |  |  | < 4.40 |  |  | < 4.40 | 4.61 | 4.52 | 6.39 | 6.06 | < 6.00
COc1ncc(-c2ccc3c(c2)N(C2CC2)C(=O)CO3)cc1NS(=O)(=O)c1ccc(F)cc1 | 5.22 | 4.84 |  |  | 4.61 |  |  | 4.62 | 5.48 | 4.45 | 6.79 | 6.60 | 6.88
Cc1ccc(N2C(=O)COc3ccc(-c4cnc(Cl)c(NS(=O)(=O)c5ccc(F)cc5)c4)cc32)cc1 | 4.49 | 4.40 |  |  | 4.46 |  |  | 4.41 | 4.51 | 4.49 | 8.43 | 7.71 | 8.39
COc1cccc(N2C(=O)COc3ccc(-c4cnc(OC)c(NS(=O)(=O)c5ccc(F)cc5)c4)cc32)c1 | < 4.40 | < 4.40 |  |  | < 4.40 |  |  | < 4.40 | 4.95 | < 4.40 | < 6.00 | < 6.00 | < 6.00
COc1cccc(N2C(=O)COc3ccc(-c4cnc(Cl)c(NS(=O)(=O)c5ccc(F)cc5)c4)cc32)c1 | < 4.40 | < 4.40 |  |  | < 4.40 |  |  | < 4.40 | 4.49 | < 4.40 | < 6.00 | < 6.00 | < 6.00
O=C1COc2ccc(-c3cnc4ccccc4c3)cc2N1c1ccc(F)cc1 | 4.41 | 4.43 |  |  | < 4.40 |  |  | < 4.40 | < 4.40 | < 4.40 | < 6.00 | < 6.00 | < 6.00
CC(C)N1C(=O)COc2ccc(-c3cnc4ccccc4c3)cc21 | 4.64 | < 4.40 |  |  | 4.63 |  |  | 4.41 | 4.61 | 4.64 | < 6.00 | < 6.00 | < 6.00
COc1ccc(N2C(=O)COc3ccc(-c4cnc(Cl)c(NS(=O)(=O)c5ccc(F)cc5)c4)cc32)cc1 | 5.08 | < 4.40 |  |  | 4.52 |  |  | 4.49 | 4.52 | 4.44 | 8.42 | 7.70 | 9.37
O=C1COc2ccc(-c3cnc(Cl)c(NS(=O)(=O)c4ccc(F)cc4)c3)cc2N1 | 4.81 | < 4.40 |  |  | < 4.40 |  |  | < 4.40 | < 4.40 | < 4.40 | 7.04 | 6.48 | 6.94
COc1ncc(-c2ccc3c(c2)NC(=O)CO3)cc1NS(=O)(=O)c1ccc(F)cc1 | 5.15 | 5.18 |  |  | 4.60 |  |  | 4.58 | 5.09 | 4.49 | 6.52 | 6.20 | 6.30
COc1ccc(N2C(=O)COc3ccc(-c4ccc(O)cc4)cc32)cc1 | 4.78 | 4.97 |  |  | 4.58 |  |  | < 4.40 | < 4.40 | 4.76 | < 6.00 | < 6.00 | < 6.00
COc1ncc(-c2ccc3c(c2)N(c2ccc(F)cc2)C(=O)CO3)cc1NS(=O)(=O)c1ccc(F)cc1 | 4.98 | 4.44 |  |  | < 4.40 |  |  | < 4.40 | 5.19 | < 4.40 | 7.72 | 7.46 | 7.68
O=C1COc2ccc(-c3cnc(Cl)c(NS(=O)(=O)c4ccc(F)cc4)c3)cc2N1c1ccc(F)cc1 | < 4.40 | < 4.40 |  |  | 4.47 |  |  | < 4.40 | 4.65 | 4.49 | 8.30 | 7.75 | 8.29
O=C1COc2ccc(-c3ccc(O)cc3)cc2N1 | < 4.40 | 4.42 |  |  | < 4.40 |  |  | < 4.40 | < 4.40 | < 4.40 | < 6.00 | < 6.00 | < 6.00
O=C1COc2ccc(-c3cccc(NS(=O)(=O)c4ccc(F)cc4)c3)cc2N1c1ccccc1 | 4.75 | 4.52 |  |  | < 4.40 |  |  | < 4.40 | < 4.40 | < 4.40 | < 6.00 | < 6.00 | < 6.00
CC(C)N1C(=O)COc2ccc(-c3ccc(O)cc3)cc21 | < 4.40 | < 4.40 |  |  | < 4.40 |  |  | < 4.40 | < 4.40 | < 4.40 | < 6.00 | < 6.00 | < 6.00
